In PMC7996082, “The translocator protein ligands as mitochondrial functional modulators for the potential anti-Alzheimer agents” (Journal of Enzyme Inhibition and Medicinal Chemistry, 2021):

How the values were obtained:
[1] = Liver microsomal stability; assay type: in vitro ADME; conditions: human, liver microsomes, 1 µM compound, 0.5 mg/mL microsomes, 30 min, 37 °C; read-out: Human Liver Microsomal Stability (% remaining after 30 min)
Method: Liver microsomes (human, dog, rat, and mouse; 0.5 mg/mL) were incubated with 1 µM of each test compound in the presence of potassium phosphate buffer (PPB) for 5 min at 37 °C. A solution of the NADPH regeneration system (#44332000, Oriental Yeast Co., Japan) was added to begin metabolic reactions of liver microsomes. The resulting mixtures were incubated for 30 min at 37 °C, and the reaction was terminated by the addition of a cold MeCN solution containing an internal standard (chlorpropamide). The mixture was separated by centrifugation (14,000 rpm for 5 min at 4 °C), and the supernatant was analysed by LC-MS/MS (Shimadzu Nexera XR system and TSQ vantage; Thermo Scientific).

[2] = molecular target: T1, CYP2D6 (Homo sapiens, UniProt P10635); assay: CYP inhibition assay (Vivid CYP450 screening kit); assay type: in vitro ADME; conditions: 10 μM compound
T1 construct: purchased Invitrogen, Madison, WI, USA
T1 sequence (P10635 whole entry): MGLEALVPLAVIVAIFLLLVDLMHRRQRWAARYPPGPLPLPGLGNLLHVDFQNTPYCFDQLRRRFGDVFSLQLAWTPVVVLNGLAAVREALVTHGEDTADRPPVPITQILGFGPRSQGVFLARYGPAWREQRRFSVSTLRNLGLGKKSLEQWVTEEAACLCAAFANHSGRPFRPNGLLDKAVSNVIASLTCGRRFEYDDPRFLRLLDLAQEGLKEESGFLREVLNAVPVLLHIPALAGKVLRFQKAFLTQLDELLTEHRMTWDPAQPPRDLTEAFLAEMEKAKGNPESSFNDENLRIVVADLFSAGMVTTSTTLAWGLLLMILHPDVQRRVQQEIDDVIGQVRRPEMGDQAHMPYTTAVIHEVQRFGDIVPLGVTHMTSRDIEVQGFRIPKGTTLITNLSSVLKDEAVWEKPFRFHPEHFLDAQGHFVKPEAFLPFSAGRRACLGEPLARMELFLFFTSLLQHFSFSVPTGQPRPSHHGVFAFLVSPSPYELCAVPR
Method: (§1) Human CYP450 (CYP1A2, 2D6, 2C9, 2C19, and 3A4) activities were determined by using the Vivid® CYP450 screening kit (Invitrogen, Madison, WI, USA) in a clear 96-well plate. Five positive controls were used as 10 mM solutions in MeCN for five different CYP450 enzymes: CYP1A2 (α-naphthoflavone), CYP2D6 (quinidine), CYP2C9 (sulfaphenazole), CYP2C19 (lansoprazole), and CYP3A4 (ketoconazole). Each sample (test compounds, positive inhibition controls, and solvent controls) was added into each well with the Master Pre-Mix [CYP450 BACULOSOMES® Reagent (recombinant human CYP450 isozyme and rabbit NADPHP450 reductase) and Regeneration System (3.3 mM glucose-6-phosphate and 0.3 U/ml glucose-6-phosphate dehydrogenase in 100 mM potassium phosphate, pH 8.0)]. The mixture was incubated for 5 min at 37 °C, and the Vivid® CYP substrates and 0.1 mM NADP^+ buffer were added to initiate the CYP450 enzyme reaction. The % remaining activities of CYP450 were measured after 20 min by using a fluorescent plate reader (Flexstation® 3, Molecular Devices, USA).

[3] = molecular target: T2, CYP1A2 (Homo sapiens, UniProt P05177); assay: CYP inhibition assay (Vivid CYP450 screening kit); assay type: in vitro ADME; conditions: 10 μM compound
T2 construct: purchased Invitrogen, Madison, WI, USA
T2 sequence (P05177 2-516 limits assumed): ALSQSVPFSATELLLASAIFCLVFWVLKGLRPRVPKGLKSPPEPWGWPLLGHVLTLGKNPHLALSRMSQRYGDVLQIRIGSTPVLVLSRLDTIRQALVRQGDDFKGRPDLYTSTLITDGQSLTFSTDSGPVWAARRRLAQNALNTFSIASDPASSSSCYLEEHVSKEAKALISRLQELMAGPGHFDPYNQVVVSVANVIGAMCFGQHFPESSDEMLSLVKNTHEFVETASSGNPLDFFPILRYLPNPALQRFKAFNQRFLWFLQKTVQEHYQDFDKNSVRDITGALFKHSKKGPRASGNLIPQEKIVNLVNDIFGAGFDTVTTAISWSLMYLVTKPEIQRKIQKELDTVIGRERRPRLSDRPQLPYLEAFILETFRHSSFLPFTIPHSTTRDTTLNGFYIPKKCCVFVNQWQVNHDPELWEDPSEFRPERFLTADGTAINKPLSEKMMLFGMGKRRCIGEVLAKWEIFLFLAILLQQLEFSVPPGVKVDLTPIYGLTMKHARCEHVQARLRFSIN
Method: as §1

[4] = molecular target: T3, CYP3A4 (Homo sapiens, UniProt P08684); assay: CYP inhibition assay (Vivid CYP450 screening kit); assay type: in vitro ADME; conditions: 10 μM compound
T3 construct: purchased Invitrogen, Madison, WI, USA
T3 sequence (P08684 2-503 limits assumed): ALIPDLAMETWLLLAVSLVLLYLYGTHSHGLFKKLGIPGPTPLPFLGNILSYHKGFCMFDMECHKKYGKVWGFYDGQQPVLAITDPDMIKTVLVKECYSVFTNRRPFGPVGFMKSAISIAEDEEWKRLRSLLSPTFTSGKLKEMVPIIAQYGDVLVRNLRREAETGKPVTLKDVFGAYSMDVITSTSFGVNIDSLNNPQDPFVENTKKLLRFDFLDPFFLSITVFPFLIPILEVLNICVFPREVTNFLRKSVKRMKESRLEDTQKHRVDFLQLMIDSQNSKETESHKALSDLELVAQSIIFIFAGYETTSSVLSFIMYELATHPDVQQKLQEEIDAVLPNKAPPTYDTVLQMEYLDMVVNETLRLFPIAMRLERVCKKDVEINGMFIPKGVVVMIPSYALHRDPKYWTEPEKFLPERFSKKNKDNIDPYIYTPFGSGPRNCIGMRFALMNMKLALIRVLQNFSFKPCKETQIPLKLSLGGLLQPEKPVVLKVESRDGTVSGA
Method: as §1

[5] = molecular target: T4, CYP2C19 (Homo sapiens, UniProt P33261); assay: CYP inhibition assay (Vivid CYP450 screening kit); assay type: in vitro ADME; conditions: 10 μM compound
T4 construct: purchased Invitrogen, Madison, WI, USA
T4 sequence (P33261 whole entry): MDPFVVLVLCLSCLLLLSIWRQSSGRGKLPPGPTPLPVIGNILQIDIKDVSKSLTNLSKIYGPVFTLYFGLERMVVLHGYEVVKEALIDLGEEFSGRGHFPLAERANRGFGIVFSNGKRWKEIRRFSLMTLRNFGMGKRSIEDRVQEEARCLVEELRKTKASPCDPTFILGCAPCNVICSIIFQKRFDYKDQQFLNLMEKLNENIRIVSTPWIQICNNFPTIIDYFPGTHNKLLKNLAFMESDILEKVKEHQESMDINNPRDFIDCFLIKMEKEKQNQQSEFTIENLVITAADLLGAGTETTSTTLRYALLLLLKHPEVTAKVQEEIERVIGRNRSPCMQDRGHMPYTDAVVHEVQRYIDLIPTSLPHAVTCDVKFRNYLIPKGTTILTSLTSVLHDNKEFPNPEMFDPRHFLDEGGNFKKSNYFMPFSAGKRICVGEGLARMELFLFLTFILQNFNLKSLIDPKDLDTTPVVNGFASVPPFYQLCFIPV
Method: as §1

[6] = molecular target: T5, CYP2C9 (Homo sapiens, UniProt P11712); assay: CYP inhibition assay (Vivid CYP450 screening kit); assay type: in vitro ADME; conditions: 10 μM compound
T5 construct: purchased Invitrogen, Madison, WI, USA
T5 sequence (P11712 whole entry): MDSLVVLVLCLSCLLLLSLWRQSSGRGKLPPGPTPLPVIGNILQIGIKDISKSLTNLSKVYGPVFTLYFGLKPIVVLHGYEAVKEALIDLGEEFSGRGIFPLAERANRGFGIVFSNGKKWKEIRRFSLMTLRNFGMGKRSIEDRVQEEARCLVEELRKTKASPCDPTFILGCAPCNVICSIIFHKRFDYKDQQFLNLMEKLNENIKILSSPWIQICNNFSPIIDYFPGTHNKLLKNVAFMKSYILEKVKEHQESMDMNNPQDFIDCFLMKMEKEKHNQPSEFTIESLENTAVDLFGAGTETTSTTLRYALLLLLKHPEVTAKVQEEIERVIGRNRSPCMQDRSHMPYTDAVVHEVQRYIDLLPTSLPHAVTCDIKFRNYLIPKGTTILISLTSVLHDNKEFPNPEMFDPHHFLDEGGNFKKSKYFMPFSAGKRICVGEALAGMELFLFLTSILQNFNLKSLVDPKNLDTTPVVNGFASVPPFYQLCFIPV
Method: as §1

[7] = MTT assay: HT22 cell viability with compound alone; assay type: cell-based, mouse; conditions: mouse, HT22 cells; HT22 cell viability after 24 h of treatment with 5 μM compound, no Aβ
Method: To a clear 96-well plate (FALCON), the cultured HT-22 cells were seeded in a number of 5,000 per well 24 h prior to the assay. A solution of each test compound (5 µM, 25 µL) was added to each well. After 24 h of incubation at 37 °C, the cells were treated with a 10 µL of MTT solution (3–(4,5-dimethylthiazol-2-yl)-2,5-diphenyltetrazolium bromide, Sigma-Aldrich), incubated for 2 h at 37 °C, and were treated with 135 µL of MTT solubilising solution (10% Triton-X 100 in isopropanol with 0.1 M HCl) for 2 h at 37 °C. The % values of cell viability were determined by using the optical density (OD) values at 560 nm, and normalised by taking the vehicle control (5 µM of DMSO) as […].

[8] = molecular target: T6, hERG channel (Homo sapiens, UniProt Q12809); assay: hERG inhibition assay (automated patch-clamp, CHO-K1 Tet-On hERG cells); assay type: cell-based; conditions: patch-clamp, ± SD
T6 construct: host or cells: CHO-K1 Tet-On hERG cells
T6 sequence (Q12809 whole entry): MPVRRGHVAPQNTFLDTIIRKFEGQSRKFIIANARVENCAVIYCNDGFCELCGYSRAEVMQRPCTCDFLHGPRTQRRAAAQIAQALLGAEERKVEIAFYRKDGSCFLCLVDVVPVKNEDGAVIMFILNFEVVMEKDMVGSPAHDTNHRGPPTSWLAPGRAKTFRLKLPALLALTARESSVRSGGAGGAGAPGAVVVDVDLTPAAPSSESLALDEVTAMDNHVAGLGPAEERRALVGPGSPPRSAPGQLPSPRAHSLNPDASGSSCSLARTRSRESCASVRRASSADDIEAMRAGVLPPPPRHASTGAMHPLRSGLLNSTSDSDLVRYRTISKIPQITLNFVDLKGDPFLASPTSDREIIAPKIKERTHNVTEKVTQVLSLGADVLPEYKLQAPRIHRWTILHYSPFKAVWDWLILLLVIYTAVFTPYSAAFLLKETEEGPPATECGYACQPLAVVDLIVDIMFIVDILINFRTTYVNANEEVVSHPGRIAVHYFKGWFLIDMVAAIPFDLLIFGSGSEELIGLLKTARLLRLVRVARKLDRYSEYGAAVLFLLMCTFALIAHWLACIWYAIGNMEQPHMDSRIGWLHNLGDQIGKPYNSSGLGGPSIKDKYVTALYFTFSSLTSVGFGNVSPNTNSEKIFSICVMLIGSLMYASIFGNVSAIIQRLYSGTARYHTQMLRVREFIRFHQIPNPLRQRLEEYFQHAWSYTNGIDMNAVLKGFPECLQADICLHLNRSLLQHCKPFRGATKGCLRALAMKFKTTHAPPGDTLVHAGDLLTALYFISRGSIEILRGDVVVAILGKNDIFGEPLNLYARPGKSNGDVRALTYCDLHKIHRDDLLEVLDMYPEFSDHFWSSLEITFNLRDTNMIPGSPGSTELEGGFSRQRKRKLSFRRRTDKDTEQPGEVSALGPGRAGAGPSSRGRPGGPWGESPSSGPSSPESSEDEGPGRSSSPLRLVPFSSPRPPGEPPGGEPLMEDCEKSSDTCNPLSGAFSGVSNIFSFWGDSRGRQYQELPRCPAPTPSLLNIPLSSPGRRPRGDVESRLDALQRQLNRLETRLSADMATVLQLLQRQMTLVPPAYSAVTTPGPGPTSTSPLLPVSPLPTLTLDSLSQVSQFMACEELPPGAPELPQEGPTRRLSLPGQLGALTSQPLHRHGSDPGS
Method: For automated patch-clamp NPC-16 Patchliner (Nanion Technologies, München, Germany) recordings, CHO-K1 Tet-On hERG cells (IonGate Biosciences GmbH, Frankfurt, Germany) were plated into 100-mm cell culture dishes. Whole-cell currents were recorded with the intracellular solution containing: 50 mM KCl, 60 mM KF, 10 mM NaCl, 2 mM MgCl2, 20 mM EGTA and 10 mM HEPES (pH 7.2), and with the extracellular solution containing: 140 mM NaCl, 4 mM KCl, 2 mM CaCl2, 1 mM MgCl2, 5 mM Glucose and 10 HEPES (pH 7.4). To assist stable seal formations, the seal enhancer containing: 80 mM NaCl, 3 mM KCl, 35 mM CaCl2, 10 mM MgCl2 and 10 mM HEPES (pH 7.4) was used only at the seal formation step. Prior to the whole-cell recordings, the external seal enhancing solution was exchanged to the extracellular solution described above. hERG channel currents were recorded using the parallel EPC-10 patch-clamp amplifiers (HEKA Elektronik, Lambrecht/Pfalz, Germany), and low-pass filtered (10 kHz) with a 4-pole Bessel filter. Cell suspension and patch solutions were automatically added onto the four recording wells in the microfabricated disposable chip (NPC-16 Chip, Nanion Technologies, München, Germany). To obtain the inhibitory constants, hERG tail currents were evoked by repolarizing steps to −50 mV for 500 ms preceded by a 500-ms depolarisation potential of +20 mV at a holding potential of −80 mV with a 20-s sweep interval. Whole-cell currents were acquired and digitised at 5 kHz using Patchmaster (HEKA Elektronik, Lambrecht/Pfalz, Germany). The extracellular solution was exchanged to the extracellular solution containing each blocker via four pipette tips of NPC-16 Patchliner using a 4-fold volume of solution (40 µL) with a speed of 4 µL/s, and the exchanged blocker solution was applied for 100–200 s to the patch-clamped cells until blocker binding had reached equilibrium by monitoring hERG tail currents. Whole-cell recordings were analysed using the Patchmaster/Fitmaster (HEKA Elektronik, Lambrecht/Pfalz, Germany), IGOR Pro (WaveMetrics Inc., Portland, OR, USA), and the GraphPad Prism 4.0 (GraphPad Software, Inc., La Jolla, CA, USA) software.

[9] = tested on: HT-22 (mouse hippocampal cells) cells treated with Aβ; assay: JC-1 assay: recovery of mitochondrial membrane potential (ΔΨm) after Aβ; assay type: cell-based; conditions: 5 μM compound, 5 μM Aβ, HT22 cells; 0% = Aβ-induced damaged condition, 100% = normal condition
Method: Thirty thousand HT-22 cells per well were seeded into a clear 96-well plate (FALCON) at 200 µL per well one day prior to assay. 750 mM of JC-1 (Stratagene) in DMSO stock solution was dissolved into phenol red-free Opti-MEM (GIBCO) medium to make final concentration of 7.5 mM JC-1 per well. Medium was removed from the plate, and 100 µL per well of JC-1 was added. The sample plates were incubated for 1 h and 15 min at 37 °C and washed twice with 100 µL per well of PBS. Subsequently, cells were treated with a 25 µL solution of each compound at 10 µM in Opti-MEM and incubated at 37 °C for 10 min followed by addition of a 25 µL of Aβ (American peptide, 1-42) solution at 10 µM. Fluorescence was measured at every one hour for three hours at ex/em 530 nm/580 nm (“red”) and ex/em 485 nm/530 nm (“green”) by using the Flexstation® 3 (Molecular Devices, USA) reader. The ratio of green to red fluorescence was calculated and normalised by taking the percent changes using vehicle control as 100%.
The selected 56 compounds were purchased and tested by in vitro cell-based assays. Four different cell-based assays (JC-1, MTT, ATP production, and cellular ROS assays) were carried out sequentially. First, the JC-1 assay was performed to screen all 56 compounds, VH001–VH056 (Supplementary Table S1). Since mitochondrial membrane depolarisation is one of the distinct signs of mPTP opening, the mitochondrial uptake of a fluorescent JC-1 dye (5,59,6,69-tetrachloro-1,19,3,39-tetraethylbenzimidazolocarbocyanine iodide) was measured to evaluate the effects of each compound on the mitochondrial membrane potential (ΔΨm). HT22 cells, a mouse hippocampal cell line, were treated with 5 µM of Aβ, incubated with each compound at the same concentration of 5 µM, and subsequently treated with JC-1. On the basis of changes in the red/green fluorescence intensity ratio between the cells treated with Aβ and control, the percent recovery of ΔΨm for each compound was calculated and normalised to the ΔΨm of healthy cells as 100%.
Compd Structure ∆Ψm at 5 Compd Structure ∆Ψm at 5 […]
a After the treatment of each compound (5 μM) and Aβ (5 μM) in HT22 cell, the increase of fluorescence ratio (green/red) was measured and normalized by taking the change of the ratio between 0% (Aβ-induced damaged condition) and 100% (normal condition in the absence of Aβ).

Structure (SMILES) | remaining at 0.5 h, 1 µM [1] [%] | CYP450 (% remaining Activity at 10 μM) CYP2D6 [2] [%] | CYP450 (% remaining Activity at 10 μM) CYP1A2 [3] [%] | CYP450 (% remaining Activity at 10 μM) CYP3A4 [4] [%] | CYP450 (% remaining Activity at 10 μM) CYP2C19 [5] [%] | CYP450 (% remaining Activity at 10 μM) CYP2C9 [6] [%] | viability at 24 h, 5 µM [7] [%] | IC50 [8] [µM] | Recovery of ΔΨm (%) [9] [%]
CCOc1ccc(-n2c(SCC(=O)Nc3ccc(Cl)cc3)nc3sc4c(c3c2=O)CCN(C(C)=O)C4)cc1 [Compound 35] | 0.1 | 113.8 | 120.0 | 70.7 | 72.0 | 64.0 | 107 | 30 ± 10.2 | –
CCOc1ccc(-n2c(SCC(=O)NCc3ccc(C)cc3)nc3sc4c(c3c2=O)CCN(C(C)=O)C4)cc1 [Compound 36] | 0 | 98.9 | 123.6 | 17.3 | 92.7 | 50.4 | 96 | 22 ± 12.7 | –
CCOc1ccc(-n2c(SCC(=O)N(CC)Cc3ccccc3)nc3sc4c(c3c2=O)CCN(C)C4)cc1 [Compound 51] | 82 | 61.4 | 98.7 | 44.1 | 52.5 | 105.8 | 107 | 10 ± 3.6 | –
CCOc1ccc(-n2c(SCC(=O)NCc3ccc(Cl)cc3)nc3sc4c(c3c2=O)CCN(C)C4)cc1 [Compound 52] | 67.6 | 36.6 | 117.2 | 42.6 | 16.1 | 86.9 | 80 | 8.6 ± 0.83 | –
CCOc1ccc(-n2c(SCC(=O)Nc3ccc(C)cc3)nc3sc4c(c3c2=O)CCN(C)C4)cc1 [Compound 55] | 49.1 | 59.2 | 69.2 | 23.0 | 31.2 | 43.0 | 127 | 5.63 ± 1.75 | –
CCc1ccc(-c2cc(C)no2)cc1S(=O)(=O)Nc1cc(OC)cc(OC)c1 [VH021] | – | – | – | – | – | – | – | – | 42
CCOc1ccc(-c2cc(C(=O)NCCCN(CC)CC)c3ccccc3n2)cc1 [VH022] | – | – | – | – | – | – | – | – | 36
CCN1CCCC1CNC(=O)c1cc(Nc2ccc(C)c(C)c2)nc2ccccc12 (stereo not shown) [VH023] | – | – | – | – | – | – | – | – | 62
CCOc1ccc(-c2cc(C(=O)NCCCN(CC)c3ccccc3)c3ccccc3n2)cc1 [VH024] | – | – | – | – | – | – | – | – | 74
CCOc1ccc(-c2cc(C(=O)NCc3cccc(OC)c3)c3ccccc3n2)cc1 [VH025] | – | – | – | – | – | – | – | – | 12
CCN(CCNC(=O)c1cc(-c2cccnc2)nc2ccccc12)c1ccccc1 [VH026] | – | – | – | – | – | – | – | – | 49
